Read-outs that look alike come from different tables or passages of the source.
Assays:
[1] = test system: acyclovir-susceptible reference strain SC16; assay: Antiviral susceptibility testing by ELISA on HEp-2 cells, strain SC16; assay type: cell-based, HSV 1
Description: (§1) Three HSV 1 reference strains were tested : SC16 (acyclovir-susceptible reference strain; (Hill et al., 1975)), DM21 (acyclovir-resistant reference strain derived from SC16; (Efstathiou et al., 1989)) and TP 2.5 (foscarnet-resistant reference strain derived from SC16; (Larder and Darby, 1985)). Antiviral assays were performed in duplicate on HEp-2 cells seeded in 96 wells microplates. Dilutions of virus and drugs were prepared in E-MEM without FCS. Cells were first treated for 24 hours with MGBG using a series of 6 twofold serial dilutions from 12.5 to 400 μM. Infection was then achieved with 5 tenfold dilutions of cell-associated virus (10^−1 to 10^−5). Each dilution was incubated with a series of 6 concentrations of each antiviral drug (from 12.5 to 400 μM in twofold dilutions for MGBG, from 0.16 to 500 μM in fivefold dilutions for acyclovir and from 31 to 1000 μM in twofold dilutions for foscarnet). […] After incubation at 36° C. with 5% CO2 for 24 hours post-infection, medium was replaced with freshly prepared dilutions of MGBG. Viral multiplication was checked 24 hours afterwards by an ELISA (Morfin et al., 1999), using a rabbit monoclonal anti-HSV 1 antibody (BO 114, Dako) and a protein A peroxidase-conjugated (BioRad). The substrate, 2,2′-azino-di(3-ethyl-benzthiazoline) sulfonic acid (ABTS) diluted in ABTS buffer (Boehringer, Mannheim), was added to each well. After 30 min at room temperature, the plates were briefly agitated and optical densities were read at 405 nm with a multichannel spectrophotomoter (Titertek-Multiskan). Optical density values were used with the Biolise program (Life Sciences International) to calculate the concentration of the drug causing a 50% inhibition of viral replication (IC50) by logistic regression analysis.
(§2) The capacity of MGBG to preclude infection of three HSV-1 acyclovir and/or foscarnet resistant strains was tested. […] The ED values were determined.

[2] = test system: acyclovir-resistant reference strain DM21; assay: Antiviral susceptibility testing by ELISA on HEp-2 cells, strain DM21; assay type: cell-based, HSV 1; details: for IC50: HEp-2 cells, ELISA, median of at least three assays, drugs diluted in μM, read-out: Susceptibility of strain DM21 (concentration causing 50% inhibition of viral replication, IC50), median
Description: as §1
The capacity of MGBG to preclude infection of three HSV-1 acyclovir and/or foscarnet resistant strains was tested. The reference strains used in this study were the SC16 acyclovir-susceptible reference strain, the DM21 acyclovir-resistant reference strain derived from SC16 and the TP 2.5 foscarnet-resistant reference strain derived from SC16 (Efstathiou et al., 1989; Hill et al., 1975; Larder and Darby, 1985). In each experiment, dose response curves were constructed for […], for acyclovir, and for MGBG. The ED values were determined.

[3] = test system: foscarnet-resistant reference strain TP 2.5; assay: Antiviral susceptibility testing by ELISA on HEp-2 cells, strain TP 2.5; assay type: cell-based, HSV 1; details: median of at least three assays, drugs diluted in μM, read-out: Susceptibility of strain TP2.5 (concentration causing 50% inhibition of viral replication, IC50), median
Description: as §1, §2

SAMDC = target: T1, SAMDC (Rattus norvegicus, UniProt P17708); assay: SAMDC inhibition in vitro; assay type: biochemical; details: inhibitor at 0.1 μM
T1 construct: according to the procedure described in Pegg A E, Poso H, S-adenosylmethionine decarboxylase (rat liver), Methods Enzymol; 1983;94: 234-239; from tissue
T1 sequence (P17708 68-333 limits assumed): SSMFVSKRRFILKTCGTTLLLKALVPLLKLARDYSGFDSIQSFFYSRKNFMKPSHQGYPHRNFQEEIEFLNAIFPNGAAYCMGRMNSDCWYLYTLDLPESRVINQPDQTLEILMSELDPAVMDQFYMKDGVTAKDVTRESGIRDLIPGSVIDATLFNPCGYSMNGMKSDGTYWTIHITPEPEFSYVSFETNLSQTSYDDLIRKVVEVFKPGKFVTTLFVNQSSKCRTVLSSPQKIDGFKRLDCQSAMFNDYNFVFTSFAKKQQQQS
T1 sequence (P17708 1-67 limits assumed): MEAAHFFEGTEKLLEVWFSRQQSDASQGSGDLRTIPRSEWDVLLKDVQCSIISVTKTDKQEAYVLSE
Excerpt: The results of SAMDC inhibition in vitro and of HSV replications in cellulo for MGBG and Compounds (I) to (III) disclosed above are reported in the table below.

[4] = test system: HSV-1 proteins, mRNA and DNA; assay: Levels of viral proteins (Western blot), mRNA and DNA (slot blot) in infected HEp2 cells; assay type: cell-based; details: 6 h pre-treatment with 100 μM MGBG, then MGBG and 50 μM spermine, 24 h p.i.
Description: Total RNA and DNA from control mock-infected and infected HEp2 cells were purified using Qiagen RNA/DNA kit. RNA were submitted to DNAse/RNAse free digestion (1.5 unit/μg RNA) and DNA were submitted to RNAse A digestion (10 units/μg). Quantitation of SAMDC mRNA, of viral mRNAs and viral DNA present in each sample was determined by slot blot analysis using the 1250 bp PstI/PvuII fragment of pSAMr1 plasmid (Pajunen et al., 1988). The 746 bp SalI-EcoNI fragment of pSG28 and the 1308 bp MluI fragment of pSG124 plasmids (Goldin et al., 1981) were labelled with [^32P] and used as probes to detect the immediate early ICP27 and the early UL42 mRNAs respectively. Us11 late mRNA was detected with [^32P]-labelled probe composed of the 230 bp XhoI fragment of pHSV-Us12 plasmid (Diaz et al., 1996). Viral DNA was detected using the ICP27 specific DNA probe.
Mock-infected and HSV-1-infected HEp2 cells were washed three times with ice cold phosphate-buffered saline (PBS) (130 mM NaCl, 4 mM Na2HPO4.2H2O, 1.5 mM KH2PO4), scrapped into PBS, and collected by centrifugation at 500×g. Cells were resuspended in Laemmli buffer (Laemmli, 1970). Proteins were resolved by polyacrylamide gel electrophoresis and transferred by electroblotting onto a polyvinylidene difluoride membrane (Immobilon-P; Millipore). Viral proteins were analysed by Western blots (10 μg aliquots) using a 50 fold dilution of either a rabbit polyclonal anti-ICP27 antibody, or a rabbit polyclonal anti-Us11 antibody (Diaz et al., 1993), or a mouse monoclonal anti-UL42 antibody diluted 50 fold.
Cells were pre-treated with 10 to 200 μM of MGBG, then infected with HSV-1 in the presence of the same concentrations of MGBG. Proteins, RNA and DNA were extracted from cells infected for 24 h. Viral proteins were detected by Western blot using specific antibodies, whereas viral mRNA and DNA levels were assayed by slot blot analysis.

[5] = test system: HSV-1 macroplaque strain (MP); assay type: cell-based; details: 50 μM spermine added with 100 μM MGBG and virus, or 2 h later
Description: HEp2 cells were grown as monolayers in Eagle's minimum essential medium (E-MEM) supplemented or not with 5% heat-inactivated foetal calf serum (FCS) and supplemented with 100 U/ml penicillin and 100 U/ml streptomycin. The cells were maintained at 37° C. under 5% CO2. The HSV-1 macroplaque strain (MP), obtained from B. Jacquemont (Lyon, France), was a gift of B. Roizman (Chicago, Ill., U.S.A.), and was used throughout this study. Viruses were grown in HEp2 cells.
HEp2 cells were grown in 6-well plates (˜10^6 cells/well) and infected just before confluence with a multiplicity of infection (m.o.i.) of 0.5 plaque-forming units (PFU) per cell in E-MEM in absence of FCS, except for some experiments. After adsorption of the virus for 1 h at 33° C. under 5% CO2, the medium containing the virus suspension was removed and the cells were washed with E-MEM, then incubated in E-MEM without FCS at 37° C. for different periods of times until harvest. Times post-infection (p.i.) were calculated from the time of addition of the virus suspension. HEp2 cells were exposed to MGBG treatment for different times. When cells were pre-treated with MGBG prior infection, MGBG was added to cell medium 6 h or 24 h prior infection until harvest. In non pre-treated cells, MGBG was added simultaneously with virus suspension, or 2 h, 4 h or 6 h latter. When cells were treated for more than 24 h, medium was replaced every 24 h with fresh medium containing the same concentration of MGBG.
Accordingly, the effect of inactivation of enzymes involved in polyamine biosynthesis upon HSV-1 infection inhibition was assessed. The HSV-1 MP strain was used throughout this study for its ability to induce the formation of large syncytia from infected cells. Therefore, it was possible to easily and quickly investigate the inhibition of viral replication at the level of syncytia formation.
To investigate the effect of the concentration of MGBG on viral infection, HEp2 cells were infected with 0.5 PFU of HSV-1 per cell in FCS free medium in which 10 μM to 300 μM MGBG was added from the adsorption step of the virus until the end of the experiment. After 24 h of infection, the formation of syncytia was observed, and the number of syncytia was estimated by counting using the optical microscope.
HEp2 cell were pre-treated with MGBG by incubation in FCS free medium containing 10 to 300 μM MGBG 6h to 24 h before infection. Then cells were infected as described above and MGBG was maintained in the medium until the end of the experiment.

HSV = HSV replication in cellulo; assay type: cell-based; details: read-out: HSV inhibition in cellulo IC50
Description: as §1

Row | Structure (SMILES) | IC50 [2] | IC50 [3] | % inhibition in vitro (0.1 μM) (SAMDC) | IC50 (HSV) | other results
1 | Nc1nc2c(ncn2COCCO)c(=O)[nH]1 [Acyclovir, acyclovir] | > 500 µM | 215 µM | – | – | IC50 ([1]; HEp-2 cells, ELISA, median of at least three assays, drugs diluted in μM, read-out: Susceptibility of strain SC16 (concentration causing 50% inhibition of viral replication, IC50), median): 28 µM
2 | CC(NNC(=N)N)c1cccc(C(=N)N)n1 (centres unmarked) [Compound (III)] | – | – | – | – | inhibition at 0.1 µM (SAMDC): 97%
3 | NCCCNCCCCNCCCN [spermine] | – | – | – | – | MGBG-induced viral inhibition in the presence of exogenous spermine [4]: abolished the MGBG-induced viral inhibition; MGBG inhibition of viral infection on addition of exogenous spermine [5]: totally prevented
4 | N=C(N)c1cccc2c1CC/C2=N\N=C(N)N [Compound (II), SAM486A] | – | – | 97% | 47 µM | –
5 | N=C(N)c1ccc(/N=N/Nc2ccc(C(=N)N)cc2)cc1 [Compound (I), Berenil] | – | – | 47% | 70 µM | –
6 | O=C(O)P(=O)(O)O [Foscarnet, foscarnet] | 148 µM | > 1000 µM | – | – | IC50 ([1]; HEp-2, read-out: Susceptibility of strain SC16 (concentration causing 50% inhibition of viral replication, IC50), median): 224 µM; decreased IC50 on acyclovir-resistant strains versus acyclovir-susceptible strain ([2]; compared with SC16): 34%
